# Measurements from patent publication US12005039B2, “Methods and compositions relating to lipokines for treating metabolic disorders” (Joslin Diabetes Center, Inc., priority 2018, dated 2024).
# Assays:
# [1] = system: skeletal muscle; assay: In vivo bioluminescent fatty acid uptake in skeletal muscle (FFA-SS-Luc); details: ACTA1Cre+/- Rosa(stop)Luc+/- mice
# Protocol: (§1) For experiments measuring in vivo bioluminescent fatty acid uptake in skeletal muscle, ACTA1cre^+/− mice (Stock no. 006139) were bred with Rosa(stop)Luc^+/+ (Stock no. 005125) (Jackson Laboratory). Experiments measuring skeletal muscle glucose uptake in isolated skeletal muscle glucose uptake were performed in 6 week old, female, CD-1 IGS mice (Charles River Laboratories).
# For experiments measuring in vivo bioluminescent fatty acid uptake in skeletal muscle, ACTA1cre^+/− mice (Stock no. 006139) were bred with Rosa(stop)Luc^+/+ (Stock no. 005125)(Jackson Laboratory). Male offspring carrying the cre allele were injected retro-orbitally with 1 μg/kg body weight 12,13-diHOME in 0.1% BSA PBS or methyl acetate as a vehicle and all mice were co-injected with 2 μm FFA-SS-Luc (Intrace Medical). This dose is based on the circulating concentration of 12,13-diHOME in mice that are housed at room temperature, 3 ng/mL (10 nM). After an acute bout of exercise, 12,13-diHOME increased to 10-30 ng/mL (30-100 nM). This is considerably below the reported cytotoxic dose of 100 mg/kg body weight (Sisemore et al., 2001). Mice were anesthetized and imaged (IVIS Spectrum CT) using sequential 30 second exposures for 12 min.
# A major source of energy for the working skeletal muscles during exercise comes from the uptake and oxidation of fatty acids. […]
# [2] = Respiratory exchange ratio and energy expenditure by CLAMS in acutely treated mice; type: in vivo; details: wild-type mice, acute injection 1 μg/kg body weight i.v., CLAMS 4 h at room temperature, vs vehicle
# Protocol: (§2) For measurements of respiratory exchange ratio (RER) and energy expenditure, mice were placed in metabolic chambers and injected intravenously with 1 μg/kg body weight 12,13-diHOME in 0.1% BSA PBS or vehicle and then monitored in the Comprehensive Laboratory Animals Monitoring System (CLAMS) at room temperature (22° C.) for 4 h.
# A major source of energy for the working skeletal muscles during exercise comes from the uptake and oxidation of fatty acids. To determine whether 12,13-diHOME increases fatty acid uptake and oxidation in skeletal muscle in vivo, a mouse model. ACTA1Cre+/−Rosa(stop)Luc+/−mice, was generated that constitutively expressed a bioluminescent reporter in skeletal muscle. Mice were injected intravenously with FFA-SS-Luc, which is a fatty acid conjugated to luciferin (Henkin et al., 2012; Liao et al., 2005), in the presence of 12,13-diHOME or a vehicle control. […] These surprising in vivo data provided a potential physiological function for the exercise-induced increases in 12,13-diHOME.
# [3] = RER by CLAMS in exercise-trained iBAT- mice treated with 12,13-diHOME; type: in vivo; details: iBAT- mice exercise trained 3 weeks, acutely treated with 12,13-diHOME
# Protocol: For iBAT-mice, mice were anesthetized using isofluorane. iBAT was surgically removed and the artery immediately cauterized. Sham mice underwent the same surgical procedure, but iBAT was not removed.
# as §2
# Therefore, an analysis of sham and iBAT-mice was performed to determine whether increased 12,13-diHOME with training regulated fat utilization in vivo. Sham and iBAT-mice were sedentary or exercise trained for 3 weeks and subsequently, the RER was measured in metabolic cages. […] In contrast, there was no effect of exercise training on RER in the iBAT-mice.
# [4] = system: differentiated C2C12 cells; assay: 14C-palmitic acid uptake and oxidation in C2C12 cells; type: cell-based; details: 1.5 μM, 15 min, vs vehicle
# Protocol: (§3) Cells were housed at 37° C., 95% humidity and 5% CO2. C2C12 myoblasts (ATCC; passages 4-7) were maintained in DMEM containing 10% FBS and 1% penicillin/streptomycin. Differentiation was induced by incubating the cells in DMEM containing 2% horse serum and 1% penicillin/streptomycin for 4 days. 3T3-LI adipocytes (ATCC; passages 4-7) were maintained in DMEM containing 10% FBS and 1% penicillin/streptomycin. Differentiation was induced by incubating the cells in DMEM containing […] and 1% penicillin/streptomycin with 400 ng/mL dexamethasone, 1 μg/mL insulin, and 115 μg/mL IBMX for days 0-2, 1 μg/mL insulin for days 2-4, and DMEM with 10% FBS and 1% penicillin/streptomycin only days 4-8.
# (§4) mRNA levels of were measured by quantitative RT-PCR using primers (Table 4). Fatty acid uptake and oxidation into differentiated C2C12 muscle cells and 3T3L1 adipocytes measured using ^14C-labeled palmitic acid uptake and conversion of ^14C-labeled palmitic acid into CO2 as previously described (Townsend et al., 2013). Cells were treated with 1.5 μM 12,13-diHOME or methyl acetate vehicle for 15 min, similar to previous studies (Lynes et al., 2017). Oxygen consumption rates (OCR) were measured in starved (1 hour) C2C12 skeletal muscle cells treated with 1.5 μM 12,13-diHOME or methyl acetate vehicle for 15 min and OCR measured in 200 μM palmitate (Seahorse XF24) (Vernochet et al., 2012). […]
# [5] = system: 3T3-L1 cells; assay: 14C-palmitic acid uptake and oxidation in 3T3-L1 cells; type: cell-based; details: 1.5 μM, 15 min, vs vehicle
# Protocol: as §3, §4
# [6] = system: C2C12 cells; assay: Oxygen consumption rate (Seahorse XF24) in C2C12 cells; type: cell-based; details: 1.5 μM, 15 min, 200 μM palmitate, vs vehicle
# Protocol: (§5) mRNA levels of were measured by quantitative RT-PCR using primers (Table 4). Fatty acid uptake and oxidation into differentiated C2C12 muscle cells and 3T3L1 adipocytes measured using ^14C-labeled palmitic acid uptake and conversion of ^14C-labeled palmitic acid into CO2 as previously described (Townsend et al., 2013). Cells were treated with 1.5 μM 12,13-diHOME or methyl acetate vehicle for 15 min, similar to previous studies (Lynes et al., 2017). Oxygen consumption rates (OCR) were measured in starved (1 hour) C2C12 skeletal muscle cells treated with 1.5 μM 12,13-diHOME or methyl acetate vehicle for 15 min and OCR measured in 200 μM palmitate (Seahorse XF24) (Vernochet et al., 2012).
# To determine if 12,13-diHOME regulated mitochondrial function in muscle, differentiated C2C12 myotubes were incubated with 12,13-diHOME and then analyzed for mitochondrial respiration. 12,13-diHOME incubation increased basal oxygen consumption rate (OCR) and respiratory capacity in C2C12 cells (FIGS. 4A and 4B).
# [7] = system: 3T3-L1 cells; assay: Oxygen consumption rate in 3T3-L1 cells; type: cell-based; details: any condition (data not shown)
# [8] = system: mitochondrial and fatty acid oxidation genes; assay: Expression of mitochondrial and fatty acid genes in tissues after acute injection (qRT-PCR); details: mice injected in vivo
# Protocol: as §5
# To identify a mechanism for increased fat utilization with 12,13-diHOME in skeletal muscle, assays were performed to determine the effects of injecting mice with 12,13-diHOME in vivo on the expression of mitochondrial and fatty acid oxidation genes in tibialis anterior muscle. […] However, there was no effect of 12,13-diHOME on mitochondrial or fatty acid oxidation genes in scWAT, pgWAT, liver, or BAT (FIGS. 6D-6G). These findings were consistent with the data showing that 12,13-diHOME regulates fatty acid metabolism in skeletal muscle.
# [9] = system: differentiated C2C12 myotubes; assay: 3H-2-deoxyglucose uptake in C2C12 cells; type: cell-based; details: 1.5 mM, 15 min, vs vehicle
# Protocol: 2-deoxyglucose uptake in C2C12 cells was measured as previously described (Nedachi and Kanzaki, 2006). Briefly, differentiated C2C12 myotubes were serum starved for 3 h in DMEM before any treatment. Cells were incubated with 12,13-diHOME ([…]; 15 min) or insulin (100 nM; 15 min). After stimulation, cells were washed with buffer containing 140 mM NaCl, 20 mM Hepes-Na (pH 7.4), 5 mM KCl, 2.5 mM MgSO4, and 1.0 mM CaCl2. Glucose transport was determined by the addition of ^3H-2-deoxyglucose for glucose for 10 min on ice. Cells were washed with ice-cold saline solution and harvested in 0.05 N NaOH to determine net accumulation of [^3H]-2-deoxyglucose (Nedachi and Kanzaki, 2006).
# (§6) Glucose is an important fuel source utilized during exercise. Accordingly, assays were performed to determine whether 12,13-diHOME increased glucose uptake in skeletal muscle. […] To confirm these findings, isolated mouse soleus and extensor digitorum longus (EDL) skeletal muscles were incubated with either vehicle or 12,13-diHOME for 1 hour.
# [10] = system: isolated mouse soleus; assay: 3H-2-deoxyglucose uptake in isolated soleus muscle; details: 300 ng/mL, 1 hour, vs vehicle
# Protocol: as §1
# (§7) Isolated skeletal muscle glucose uptake was measured as previously described (Hayashi et al., 1998). Briefly, EDL or soleus muscles were dissected from 6 wk old female CD-1 mice, mounted, and incubated in Krebs-Ringer bicarbonate buffer (KRB) pH 7.4 containing 2 mM pyruvate for 60 min. Both EDL and soleus were incubated with vehicle or 300 ng/mL of 12,13-diHOME. Following treatment, glucose transport activity was measured for an additional 10 min.
# as §6
# [11] = system: isolated mouse extensor digitorum longus (EDL); assay: 3H-2-deoxyglucose uptake in isolated EDL muscle; details: 300 ng/mL, 1 hour, vs vehicle
# Protocol: as §1, §7, §6
# [12] = Sisemore et al., 2001; cited from earlier work
smiles,measurement,setting,value
"CCCCCC(O)C(O)C/C=C\CCCCCCCC(=O)O (stereo not drawn) [12,13-diHOME, 12,13-dihydroxy-9Z-octadecenoic acid]",fatty acid uptake in skeletal muscle (luciferase activity),"[1]; 1 μg/kg body weight injected with FFA-SS-Luc, vs vehicle",increased fatty acid uptake in skeletal muscle
same,time fatty acid uptake remained significantly elevated above vehicle,"[1]; 1 μg/kg body weight, after injection",10 min
same,energy expenditure,[2],independent of any change in energy expenditure
same,respiratory exchange ratio (RER),[2],decreased
same,RER,[3],significantly decreased
same,fatty acid oxidation (14C palmitic acid to CO2),[4],significant increase
same,fatty acid uptake (14C palmitic acid),[4],significant increase
same,fatty acid oxidation (14C palmitic acid to CO2),[5],did not increase
same,fatty acid uptake (14C palmitic acid),[5],did not increase
same,ATP turnover,[6],did not affect
same,basal oxygen consumption rate (OCR),[6],increased
same,maximal uncoupled respiration,[6],did increase
same,respiratory capacity,[6],increased
same,OCR,[7],did not increase OCR under any condition
same,expression of mitochondrial or fatty acid oxidation genes,[8]; BAT,no effect
same,expression of mitochondrial and fatty acid genes,[8]; heart,increased expression of Nrf1 and Nrf2
same,expression of mitochondrial or fatty acid oxidation genes,[8]; liver,no effect
same,expression of mitochondrial or fatty acid oxidation genes,[8]; pgWAT,no effect
same,expression of mitochondrial or fatty acid oxidation genes,[8]; scWAT,no effect
same,expression of mitochondrial and fatty acid genes,[8]; tibialis anterior muscle,"increased expression of several genes involved in mitochondrial activity and biogenesis (citrate synthase, Nrf1, Nrf2), and fatty acid uptake (Cd36, Fatp4)"
same,glucose uptake (3H-2DG),[9],did not affect glucose uptake
same,rate of glucose uptake (3H-2DG),[10],no effect
same,rate of glucose uptake (3H-2DG),[11],no effect
same,reported cytotoxic dose,[12],100 mg/kg body weight
